Consider `Cc1cc(N2CCN(Cc3ccccc3)C2=O)sc1C(=O)NCc1cccnc1` [Example 15.1, 5-(3-benzyl-2-oxoimidazolidin-1-yl)-3-methyl-N-(pyridin-3-ylmethyl)thiophene-2-carboxamide], for which the melting point fell in the range of 130 to 131 °C.
In turn, `CCNC(=O)c1sc(N2CCN(Cc3ccc(OC(F)(F)F)cc3)C2=O)nc1C` [Example 8.2, N-ethyl-4-methyl-2-(2-oxo-3-(4-(trifluoromethoxy)benzyl)imidazolidin-1-yl)thiazole-5-carboxamide] returned a melting point of 218 to 219 °C.
Compound `Cc1nc(N2CCN(CCc3c[nH]c4ccccc34)C2=O)sc1C(=O)NCc1ccccc1` [Example 23.7, 2-(3-(2-(1H-indol-3-yl)ethyl)-2-oxoimidazolidin-1-yl)-N-benzyl-4-methylthiazole-5-carboxamide] had a melting point of 215 to 217 °C.
For `Cc1nc(N2C(=O)N(Cc3ccc(C(F)(F)F)cc3)CC2O)sc1C(=O)NCc1cccnc1` (stereo not shown) [Example 16.3, 2-(5-hydroxy-2-oxo-3-(4-(trifluoromethyl)benzyl)imidazolidin-1-yl)-4-methyl-N-(pyridin-3-ylmethyl)thiazole-5-carboxamide] the value was 171 to 172 °C; for `Cc1cc(-c2sc(N3CCN(Cc4ccc(C(=O)N5CCCCC5)cc4)C3=O)nc2C)n[nH]1` [Example 40, 1-(4-methyl-5-(3-methyl-1H-pyrazol-5-yl)thiazol-2-yl)-3-(4-(piperidine-1-carbonyl)benzyl)imidazolidin-2-one], 182 to 183 °C.
The figure for `Cc1nc(N2CCN(Cc3ccccc3)C2=O)sc1C(=O)NCc1ccccc1` [Example 8, N-benzyl-2-(3-benzyl-2-oxoimidazolidin-1-yl)-4-methylthiazole-5-carboxamide] is 169 to 171 °C; for `Cc1nc(N2CCN(Cc3ccc(C(F)(F)F)cc3)C2=O)sc1C(=O)NCc1ccccc1` [Example 9.13, N-benzyl-4-methyl-2-(2-oxo-3-(4-(trifluoromethyl)benzyl)imidazolidin-1-yl)thiazole-5-carboxamide] it is 127 to 128 °C.
As for `Cc1nc(N2CCN(Cc3ccccc3)C2=O)sc1C(=O)NCc1cc(F)ccc1F` [Example 9.2, 2-(3-benzyl-2-oxoimidazolidin-1-yl)-N-(2,5-difluorobenzyl)-4-methylthiazole-5-carboxamide], the melting point fell in the range of 176 to 177 °C.
Compound `Cc1nc(N2CCN(Cc3ccc(C#N)cc3)C2=O)sc1C(=O)NCc1ccccc1` [Example 23, N-benzyl-2-(3-(4-cyanobenzyl)-2-oxoimidazolidin-1-yl)-4-methylthiazole-5-carboxamide] gave a melting point of 176 to 178 °C.
With `Cc1cc(N2CCN(CC3CC3)C2=O)sc1C(=O)NCc1cccnc1` [Example 15.3, 5-(3-(cyclopropylmethyl)-2-oxoimidazolidin-1-yl)-3-methyl-N-(pyridin-3-ylmethyl)thiophene-2-carboxamide], the melting point was 157 to 159 °C.
The figure for `Cc1nc(-n2cnn(CCOCc3ccc(F)cc3)c2=O)sc1C(=O)NCc1cccnc1` [Example 49, 2-(1-(2-(4-fluorobenzyloxy)ethyl)-5-oxo-1H-1,2,4-triazol-4(5H)-yl)-4-methyl-N-(pyridin-3-ylmethyl)thiazole-5-carboxamide] is 235 to 236 °C; for `O=C(O)c1cnc(N2CCN(CC3CC3)C2=O)s1` [Example 25.1, 2-(3-(cyclopropylmethyl)-2-oxoimidazolidin-1-yl)thiazole-5-carboxylic acid] it is 250 to 252 °C.
The compound `Cc1nc(N2CCN(CC(=O)NCc3ccc(F)cc3)C2=O)sc1C(=O)NCc1ccccc1` [Example 15.5, N-benzyl-2-(3-(2-(4-fluorobenzylamino)-2-oxoethyl)-2-oxoimidazolidin-1-yl)-4-methylthiazole-5-carboxamide] had a melting point of 232 to 234 °C.
In turn, `Cc1nc(-n2cnn(Cc3ccc(F)cc3)c2=O)sc1C(=O)NCc1nccs1` [Example 21.12, 2-(1-(4-fluorobenzyl)-5-oxo-1H-1,2,4-triazol-4(5H)-yl)-4-methyl-N-(thiazol-2-ylmethyl)thiazole-5-carboxamide] yielded a melting point of 189 to 190 °C.
With `CCOC(=O)c1sc(N2CCN(Cc3ccc(C(F)(F)F)cc3)C2=O)nc1C` [Example 5.2, ethyl 4-methyl-2-(2-oxo-3-(4-(trifluoromethyl)benzyl)imidazolidin-1-yl)thiazole-5-carboxylate], the melting point was 126 to 127 °C.
Consider `Cc1nc(N2CCN(CC3CCCC3)C2=O)sc1C(=O)NCc1cccnc1` [Example 9.38, 2-(3-(cyclopentylmethyl)-2-oxoimidazolidin-1-yl)-4-methyl-N-(pyridin-3-ylmethyl)thiazole-5-carboxamide], for which the melting point lay in the range of 142 to 143 °C.
For `Cc1nc(-n2cnn(Cc3ccc(F)cc3)c2=O)sc1C(=O)NCc1ncco1` [Example 21.8, 2-(1-(4-fluorobenzyl)-5-oxo-1H-1,2,4-triazol-4(5H)-yl)-4-methyl-N-(oxazol-2-ylmethyl)thiazole-5-carboxamide], the melting point lay within 152 to 153 °C.
In turn, `Cc1nc(N2CCN(Cc3ccc(OC(F)(F)F)cc3)C2=O)sc1C(=O)NCCC1CC1` [Example 8.3, N-(2-cyclopropylethyl)-4-methyl-2-(2-oxo-3-(4-(trifluoromethoxy)benzyl)imidazolidin-1-yl)thiazole-5-carboxamide] registered a melting point of 195 to 196 °C.
With `Cc1nc(N2CCN(Cc3ccc(F)cc3)C2=O)sc1C(=O)NCc1cnn(C)c1` [Example 32.13, 2-(3-(4-fluorobenzyl)-2-oxoimidazolidin-1-yl)-4-methyl-N-((1-methyl-1H-pyrazol-4-yl)methyl)thiazole-5-carboxamide], the melting point is 173 to 175 °C.
As to `Cc1nc(N2CCCN(CC3CC3)C2=O)sc1C(=O)NCc1cccnc1` [Example 32.26, 2-(3-(cyclopropylmethyl)-2-oxotetrahydropyrimidin-1(2H)-yl)-4-methyl-N-(pyridin-3-ylmethyl)thiazole-5-carboxamide], the melting point lay in the range of 142 to 145 °C.
For `Cc1cc(-c2sc(N3CCN(Cc4ccc(F)cc4)C3=O)nc2C)n[nH]1` [Example 40.1, 1-(4-fluorobenzyl)-3-(4-methyl-5-(5-methyl-1H-pyrazol-3-yl)thiazol-2-yl)imidazolidin-2-one] the value was 218 to 221 °C.
The compound `Cc1nc(N2CCN(Cc3ccc(F)cc3)C2=O)sc1C(=O)N(C)C` [Example 32.22, 2-(3-(4-fluorobenzyl)-2-oxoimidazolidin-1-yl)-N,N,4-trimethylthiazole-5-carboxamide] displayed a melting point of 162 to 164 °C.
Turning to `Cc1nc(N2CCN(Cc3ccc(F)cc3)C2=O)sc1C(=O)NCc1ccc(F)cc1` [Example 9.20, N-(4-fluorobenzyl)-2-(3-(4-fluorobenzyl)-2-oxoimidazolidin-1-yl)-4-methylthiazole-5-carboxamide], the melting point was in the range of 177 to 178 °C.
`Cc1nc(N2CCN(Cc3cccc(F)c3)C2=O)sc1C(=O)NCc1ccccc1` [Example 23.3, N-benzyl-2-(3-(3-fluorobenzyl)-2-oxoimidazolidin-1-yl)-4-methylthiazole-5-carboxamide] showed a melting point of 155 to 156 °C.
The figure for `Cc1nc(N2CCN(Cc3ccc(OC(F)(F)F)cc3)C2=O)sc1C(=O)NCC1CC1` [Example 8.12, N-(cyclopropylmethyl)-4-methyl-2-(2-oxo-3-(4-(trifluoromethoxy)benzyl)imidazolidin-1-yl)thiazole-5-carboxamide] is 184 to 186 °C; for `Cc1nc(N2CCN(CCCc3ccccc3)C2=O)sc1C(=O)O` [Example 6.12, 4-methyl-2-(2-oxo-3-(3-phenylpropyl)imidazolidin-1-yl)thiazole-5-carboxylic acid] it is 218 to 221 °C; for `Cc1nc(N2CCN(CC3CCCCO3)C2=O)sc1C(=O)NCc1cccnc1` (stereo not shown) [Example 9.36, 4-methyl-2-(2-oxo-3-((tetrahydro-2H-pyran-2-yl)methyl)imidazolidin-1-yl)-N-(pyridin-3-ylmethyl)thiazole-5-carboxamide] it is 174 to 175 °C.
The figure for `Cc1nc(N2CCN(Cc3ccc(Cl)cc3)C2=O)sc1C(=O)NCc1cccnc1` [Example 9.28, 2-(3-(4-chlorobenzyl)-2-oxoimidazolidin-1-yl)-4-methyl-N-(pyridin-3-ylmethyl)thiazole-5-carboxamide] is 178 to 179 °C.
The figure for `CNC(=O)c1sc(N2CCN(Cc3ccc(F)cc3)C2=O)nc1C` [Example 32.19, 2-(3-(4-fluorobenzyl)-2-oxoimidazolidin-1-yl)-N,4-dimethylthiazole-5-carboxamide] is 225 to 227 °C; for `CCOC(=O)c1sc(N2CCN(Cc3ccc(Cl)cc3)C2=O)nc1C` [Example 10.3, ethyl 2-(3-(4-chlorobenzyl)-2-oxoimidazolidin-1-yl)-4-methylthiazole-5-carboxylate] it is 117 to 119 °C.
In the case of `Cc1cc(N2CCN(Cc3ccc(F)cc3)C2=O)sc1C(=O)NCc1cccnc1` [Example 15.2, 5-(3-(4-fluorobenzyl)-2-oxoimidazolidin-1-yl)-3-methyl-N-(pyridin-3-ylmethyl)thiophene-2-carboxamide], the melting point lay within 119 to 120 °C.
For `Cc1nc(N2CCN(Cc3ccc(F)cc3)C2=O)sc1C(=O)NCc1cnccn1` [Example 32.17, 2-(3-(4-fluorobenzyl)-2-oxoimidazolidin-1-yl)-4-methyl-N-(pyrazin-2-ylmethyl)thiazole-5-carboxamide], the melting point lay within 185 to 187 °C.
Compound `Cc1cc(N2CCN(Cc3ccc(F)cc3)C2=O)sc1C(=O)NCc1nc2ccccc2[nH]1` [Example 55.4, N-((1H-benzo[d]imidazol-2-yl)methyl)-5-(3-(4-fluorobenzyl)-2-oxoimidazolidin-1-yl)-3-methylthiophene-2-carboxamide] came in with a melting point of 265 to 267 °C.
For `Cc1cnc(CNC(=O)c2sc(N3CCN(CC4CC4)C3=O)nc2C)cn1` [Example 9.34, 2-(3-(cyclopropylmethyl)-2-oxoimidazolidin-1-yl)-4-methyl-N-((5-methylpyrazin-2-yl)methyl)thiazole-5-carboxamide] the value was 161 to 163 °C.

For orientation: melting point means the temperature of the solid-liquid transition.
